One assay has as its system SW-620. The experiment in a line: Antitumour activity against human SW620 cells xenografted in mouse assessed as inhibition of tumour growth at 60 mg/kg relative to control. Format: functional. The conditions noted are these: read-out: TGI. (In general: In xenograft studies the graft and the host belong to different species.)
The next assay relates to COLO 205. Put plainly: Cytotoxicity against human COLO205 cells after 72 hrs by MTT assay. Format: functional, cell-based. To be noted: COLO 205, 72 h.
The test system of another assay is MDA-MB-435. Put plainly: Cytotoxicity against human MDA-MB-435 cells after 72 hrs by MTT assay. The class given is functional, cell-based. The conditions noted are these: MDA-MB-435, 72 h. (Formazan colour is commonly taken as a measure of viable cells.)
Another assay relates to P388. Put plainly: Cytotoxicity against mouse P388 cells. Format: functional. The conditions noted are these: read-out: ED50 (the source's name).
In assay [1] the test system is KB. The experiment in a line: (§1) Cytotoxicity against human KB cells. The class given is functional. The conditions noted are these: read-out: ED50 (the source's name).
The subject of assay [2] is HT-29. The experiment in a line: Cytotoxicity against human HT-29 cells. Format: functional. To be noted: read-out: ED50 (the source's name).
Assay [3] has as its system MCF7. Put plainly: (§2) Cytotoxicity against human MCF7 cells. Format: functional. To be noted: read-out: ED50 (the source's name).
In a further assay the test system is HL-60. The experiment in a line: Antiproliferative activity against human HL60 cells assessed as reduction in cell viability after 3 days by XTT assay. Format: functional, cell-based. The conditions noted are these: HL-60, 72 h.
For the next assay, the system named is DU-145. Put plainly: Growth inhibition of human DU145 cells at 200 uM after 24 hrs by WST-1 assay relative to control. To be noted: DU-145, 24 h, read-out: GI. Format: functional.
The test system of a further assay is NCI-H460. Put plainly: Cytotoxicity against human NCI-H460 cells after 24 hrs by MTT assay. The class given is functional, cell-based. To be noted: NCI-H460, 24 h.
The test system of assay [4] is HepG2. The experiment in a line: Cytotoxicity against human HepG2 cells after 24 hrs by MTT assay. The conditions noted are these: HepG2, 24 h. Format: functional, cell-based.
In assay [5] the test system is MCF7. The experiment in a line: Cytotoxicity against human MCF7 cells after 24 hrs by MTT assay. Format: functional, cell-based. The conditions noted are these: MCF7, 24 h.
Assay [6] is described as follows: Cytotoxicity against human QGY cells assessed as reduction in cell viability after 24 hrs by MTT assay. The class given is functional, cell-based.
Assay [7] can be described thus: Cytotoxicity against human 95-D cells assessed as reduction in cell viability after 24 hrs by MTT assay. Format: functional, cell-based.
The next assay has as its system HeLa. Put plainly: Cytotoxicity against human HeLa cells assessed as reduction in cell viability after 24 hrs by MTT assay. Format: functional, cell-based.
A short description of assay [8]: Cytotoxicity against human HO8910 cells assessed as reduction in cell viability after 24 hrs by MTT assay. The class given is functional, cell-based. The conditions noted are these: HO-8910, 24 h.
In a further assay the test system is HCT-116. Put plainly: Cytotoxicity against human p53 positive HCT116 cells assessed as reduction in cell viability after 48 hrs by MTT assay. Format: functional. To be noted: HCT-116, 48 h, read-out: LD50 (the source's name).
Assay [9] has as its system HepG2. Put plainly: Cytotoxicity against human HepG2 cells. Format: functional, cell-based.
Another assay relates to SK-MEL-2. Put plainly: Cytotoxicity against human SK-MEL-2 cells. Format: functional, cell-based.
The test system of a further assay is LNCaP. The experiment in a line: Cytotoxicity against human LNCAP cells. Format: functional, cell-based.
Assay [10] deals with KB. The description is as §1. The class given is functional, cell-based.
Assay [11] relates to MCF7. Described as §2. Format: functional, cell-based.
The next assay concerns A549. The experiment in a line: Cytotoxicity against human A549 cells after 24 hrs by MTT assay. The class given is functional, cell-based. The conditions noted are these: A549, 24 h.
The test system of assay [12] is HT-29. Put plainly: Cytotoxicity against human HT-29 cells after 24 hrs by MTT assay. The class given is functional, cell-based. To be noted: HT-29, 24 h.
Another assay deals with MIA PaCa-2. Put plainly: Cytotoxicity against human MIAPaCa2 cells after 24 hrs by MTT assay. Format: functional, cell-based. To be noted: MIA PaCa-2, 24 h.
A further assay deals with HEp-2. Put plainly: Cytotoxicity against human Hep2 cells after 24 hrs by MTT assay. The class given is functional, cell-based. To be noted: HEp-2, 24 h.
The subject of another assay is BGC-823. Put plainly: Cytotoxicity against human BGC823 cells. Format: functional, cell-based.
The subject of another assay is HCT-8. Put plainly: Cytotoxicity against human HCT8 cells. The class given is functional, cell-based.

≈ marks a conversion by molar mass, not a printed value.

By IC50 is commonly meant the concentration needed to halve the response being measured.

Regarding `COc1ccc(-c2cc(=O)c3c(O)c(O)c(OC)cc3o2)cc1OC`, in the assay with SW-620, the inhibition in vivo at 60 mg/kg came out at 44.6%.
`C=C1C(=O)O[C@H]2[C@H]1[C@@H](O)C[C@]1(C)O[C@@]13C(=O)C=C(C)[C@H]23`: the IC50 with COLO 205 and with MDA-MB-435 was 7 to 10 µM in each case.
On to `C=C1C(=O)O[C@H]2[C@H]1[C@@H](OC(=O)C(C)CC)CC(=C)[C@]1(O)CC=C(C)[C@H]21` (some centres not stated), for which the half-inhibitory concentration (IC50) with COLO 205 and in the assay with MDA-MB-435 was 7 to 10 µM each time.
Turning to `COc1ccc(-c2oc3cc(OC)c(OC)c(O)c3c(=O)c2O)cc1OC`, the EC50 with P388, with KB [1], in the assay on HT-29 [2] and with MCF7 [3] was 1.25 to 9.62 µg/mL (≈ 3.34 to 25.7 µM) each time.
`COc1cc(-c2cc(=O)c3c(O)c(O)c(OC)cc3o2)ccc1O`: in the assay with SW-620, the inhibition in vivo at 60 mg/kg was 14.6%.
As to `COc1c(O)cc2oc(Oc3ccc(O)cc3)cc(=O)c2c1O`, the concentration for half-maximal inhibition (IC50) in the assay with HL-60 lay in the range of 1.1 to 40.7 µg/mL (≈ 3.48 to 129 µM). Also, the inhibition of growth at 200 µM in the assay on DU-145 stood at 20%.
For the molecule `CC1=C[C@@H]2[C@@H]([C@@H](C)C(=O)O)CC[C@@](C)(O)[C@@H]2C[C@H]1O`, the IC50 in the assay on NCI-H460, with HepG2 [4] and in the assay on MCF7 [5] was 26.8 to 48.7 µM throughout.
As for `C=CC(=C)CC/C=C(/CCC=C(C)C)COC(C)=O`, the half-maximal inhibitory concentration (IC50) (in [6]; in assay [7]; in the assay with HeLa; in assay [8]) was 17.9 to 73.3 µM each time.
For the molecule `CCCCCCCCCCCCCCCCCCCCCCOC(=O)/C=C/c1ccc(O)cc1`, the CC50 in the assay on HCT-116 is 33.8 µM.
Take `C=C1C(=O)O[C@H]2[C@H]1CC[C@@](C)(O)C1=C[C@H](O)[C@@](C)(O)[C@@H]12`: the IC50 with HepG2 [9], in the assay on SK-MEL-2, in the assay on LNCaP, in the assay with KB [10] and with MCF7 [11] was over 100 µM each time.
In the case of `CC#CC#CC(=O)c1ccccc1`, the IC50 in the assay with HL-60 lay within 1.1 to 40.7 µg/mL (≈ 6.54 to 242 µM); with A549 it was 0.6 to 6.1 µM; in the assay with HT-29 [12] it was 0.6 to 6.1 µM; in the assay on MIA PaCa-2, 0.6 to 6.1 µM; in the assay with HEp-2, 0.6 to 6.1 µM.
For `C=C(C(=O)OC)[C@@H]1CC[C@@]2(C)C(=O)C=C[C@@](C)(O)[C@@H]2[C@H]1O`, the IC50 with BGC-823 is 6.25 µM; in the assay on HCT-8, 9.13 µM.

These data come from ChEMBL document CHEMBL4342436, “Artemisia: a promising plant for the treatment of cancer” (Bioorg Med Chem, 2020).
